Measurements as given in patent US11434227B2, “Broad spectrum antibacterial activity of novel bisbenzimidazoles targeting topoisomerase IA and the synergistic composition of bisbenzimidazole with efflux pump inhibitors against pathogenic bacteria” (Jawaharlal Nehru University (JNU), priority 2016, dated 2022).
≈ marks a conversion by molar mass, not a printed value.

How the values were obtained:
E. coli ATCC25922 = assay: HN12b in combination with efflux pump inhibitors (CB method, FICI)
Method: (§1) 96-well microtiter plates containing MIC25 concentrations of the Efflux pump inhibitor (CCCP, PAβN) and HN12b antimicrobial drugs alone and in CB combination were used. The MICs of the individual drugs HN12b, PAβN and CCCP (0.25 to 128 μg/ml) and of the combinations were determined using the broth microdilution technique as recommended by the CLSI. Briefly, the broth microdilution plates were inoculated with each test organism to yield the appropriate density (10^5 CFU/ml) in 100 μl Mueller-Hinton broth (MHB) and incubated for 24 h at 37° C. in ambient air. One well with no antibiotic was used as a positive growth control on each plate. Plates were read for visual turbidity, and results were recorded after 24 h of incubation at 37° C. in ambient air by using a magnifying mirror reader, as turbidity in wells indicated growth of the microorganism. The MIC was determined as the well in the microtiter plate with the lowest drug concentration at which there was no visible growth. […] MICAB was defined as the MIC of drug A in the presence of drug B; MICBA was defined as the MIC of drug B in the presence of drug A.
(§2) The fractional inhibitory concentration index (FICI) was calculated for each antibiotic in each combination by using the following formula: FICA+FICB=FICI, where FICA equals the MIC of drug A in combination divided by the MIC of drug A alone and FICB equals the MIC of drug B in combination divided by the MIC of drug B alone. The FICIs were interpreted as follows: FICI of ≤0.5 will correspond to synergy; FICI of >0.5 to ≤1 will correspond to additivity; FICI of >1 to ≤4 will correspond to no interaction (indifference), and FICI of >4 will correspond antagonism.

E. coli KK45 = assay: as above
Method: as §1, §2

A. baumannii (MTCC1920) = assay: as above
Method: as §1, §2

A. baumannii (AB387) = assay: as above
Method: as §1, §2

[1] = system: K. planticola (MTCC 2272); assay: as above
Method: as §1, §2

K. planticola (1164) = assay: as above
Method: as §1, §2

P. aeruginosa (MTCC1688) = assay: as above
Method: as §1, §2

P. aeruginosa (Ps 366) = assay: as above
Method: as §1, §2

Enterococcus sp. (2105) [2] = assay: as above
Method: as §1, §2

Enterococcus sp. (1121) [3] = assay: as above
Method: as §1, §2

[4] = system: Providencia sp. (MTCC 2102); assay: as above
Method: as §1, §2

Providencia sp. (P592) = assay: as above
Method: as §1, §2

[5] = system: Shigella flexineri (MTCC1457); assay: Susceptibility (MIC50/MIC90), broth microdilution; format: cell-based
[6] = system: Mycobacterium tuberculosis H37Ra (avirulent); assay: Susceptibility of Mycobacterium tuberculosis strains (MIC90); format: cell-based
[7] = system: Mycobacterium tuberculosis H37Rv (virulent); assay: as above; format: cell-based
[8] = system: isogenic efflux deleted strains; assay: Susceptibility of isogenic efflux deleted strains versus wild type; format: cell-based, Escherichia coli; settings: in comparison to wild type strains
M. tuberculosis = assay: Effect on virulent and avirulent strains of M. tuberculosis; format: cell-based, Mycobacterium tuberculosis
Enterococcus sp. (2105) [9] = assay: Susceptibility (MIC50/MIC90), broth microdilution
Method: (§3) MICs were determined by the broth microdilution method according to CLSI methods (Clinical and Laboratory Standards Institute, 2005). Inoculants were incubated at 37° C. on cation adjusted Mueller Hinton (MH) Broth for 18 to 24 h. Compound were dissolved in media to 10 doubling dilutions from 128 to 0.125 μg/mL. All the bacterial strains were grown in 96 well plate with low evaporation lid (Falcon, Becton Dickinson) in presence of derivatives of benzimidazoles at 0.125, 0.25, 0.5, 1, 2, 4, 8, 16, 32, 64, 128, 256 μg/mL concentrations. […] Plates were read by Tecan Micro-plate Reader at 600 nm.

Enterococcus sp. (1121) [10] = assay: Susceptibility (MIC50/MIC90), broth microdilution
Method: as §3

Enterococcus sp. (1365) = assay: Susceptibility (MIC50/MIC90), broth microdilution
Method: as §3

Enterococcus sp.(1150) = assay: Susceptibility (MIC50/MIC90), broth microdilution
Method: as §3

Enterococcus sp. (1367) = assay: Susceptibility (MIC50/MIC90), broth microdilution
Method: as §3

Enterococcus sp. (432) = assay: Susceptibility (MIC50/MIC90), broth microdilution
Method: as §3

Staphylococcus sp. (976) = assay: Susceptibility (MIC50/MIC90), broth microdilution
Method: as §3

Staphylococcus sp. (982) = assay: Susceptibility (MIC50/MIC90), broth microdilution
Method: as §3

[11] = system: Staphylococcus sp. (1016); assay: Susceptibility (MIC50/MIC90), broth microdilution; settings: Staphylococcus
Method: as §3

Escherichia coli 385 = assay: Susceptibility (MIC50/MIC90), broth microdilution
Method: as §3

Escherichia coli 392 = assay: Susceptibility (MIC50/MIC90), broth microdilution
Method: as §3

[12] = system: Acinetobacter baumannii (MTCC1920); assay: Susceptibility (MIC50/MIC90), broth microdilution
Method: as §3

[13] = system: Acinetobacter baumannii (AB387); assay: Susceptibility (MIC50/MIC90), broth microdilution
Method: as §3

[14] = system: Acinetobacter baumannii (AB312); assay: Susceptibility (MIC50/MIC90), broth microdilution
Method: as §3

[15] = system: Pseudomonas aeruginosa (Ps162); assay: Susceptibility (MIC50/MIC90), broth microdilution
Method: as §3

[16] = system: Pseudomonas aeruginosa (MTCC1688); assay: Susceptibility (MIC50/MIC90), broth microdilution
Method: as §3

[17] = system: Pseudomonas aeruginosa (MTCC 366); assay: Susceptibility (MIC50/MIC90), broth microdilution; settings: MTCC366
Method: as §3

[18] = system: Klebsiella planticola (MTCC 2272); assay: Susceptibility (MIC50/MIC90), broth microdilution; settings: MTCC2272
Method: as §3

[19] = system: Klebsiella planticola (K1164); assay: Susceptibility (MIC50/MIC90), broth microdilution
Method: as §3

[20] = system: Klebsiella planticola (K235); assay: Susceptibility (MIC50/MIC90), broth microdilution
Method: as §3

[21] = system: Klebsiella planticola (K589); assay: Susceptibility (MIC50/MIC90), broth microdilution
Method: as §3

[22] = system: Salmonella typhimurium (MTCC 1251); assay: Susceptibility (MIC50/MIC90), broth microdilution; settings: Salmonella enterica
Method: as §3

[23] = system: Salmonella typhimurium (St412); assay: Susceptibility (MIC50/MIC90), broth microdilution; settings: Salmonella enterica
Method: as §3

E. coli K12 = assay: Susceptibility of E. coli K12 and mutants (MIC90); settings: Escherichia coli
Method: as §3

E. coli K12 mutant ΔacrA = assay: Susceptibility of E. coli K12 and mutants (MIC90); settings: Escherichia coli
Method: as §3

E. coli K12 mutant ΔemrA = assay: Susceptibility of E. coli K12 and mutants (MIC90); settings: Escherichia coli
Method: as §3

E. coli K12 mutant ΔtolC = assay: Susceptibility of E. coli K12 and mutants (MIC90); settings: Escherichia coli
Method: as §3

E. coli K12 mutant ΔompC = assay: Susceptibility of E. coli K12 and mutants (MIC90); settings: Escherichia coli
Method: as §3

E. coli K12 mutant ΔompF = assay: Susceptibility of E. coli K12 and mutants (MIC90); settings: Escherichia coli
Method: as §3

[24] = system: E. coli K12 mutant ΔTopIA; assay: Susceptibility of E. coli K12 and mutants (MIC90); settings: Escherichia coli
Method: as §3

[25] = system: E. coli K12 mutant ΔTopIB; assay: Susceptibility of E. coli K12 and mutants (MIC90); settings: Escherichia coli
Method: as §3

[26] = system: Escherichia coli (ATCC 25922); assay: Susceptibility (MIC, PAE, MBC), broth microdilution; settings: Escherichia coli, ATCC25922, Escherichia coli (ATCC 25922); Table 2

## N#CC(C#N)=NNc1cccc(Cl)c1 [CCCP, carbonyl cyanide-m-chlorophenyl hydrazone, reference compound]
E. coli ATCC25922; Escherichia coli, ATCC25922
  MIC90: 11.8 µg/mL
E. coli KK45; Escherichia coli, KK45
  MIC90: 12.3 µg/mL
A. baumannii (MTCC1920); Acinetobacter baumannii, MTCC1920
  MIC90: 30.2 µg/mL
A. baumannii (AB387); Acinetobacter baumannii
  MIC90: 12 µg/mL
[1]; Klebsiella planticola, MTCC2272
  MIC90: 13.9 µg/mL
K. planticola (1164); Klebsiella planticola
  MIC90: 14.7 µg/mL
P. aeruginosa (MTCC1688); Pseudomonas aeruginosa, MTCC1688
  MIC90: 128 µg/mL
P. aeruginosa (Ps 366); Pseudomonas aeruginosa
  MIC90: 128 µg/mL
Enterococcus sp. (2105) [2]; Enterococcus
  MIC90: 27.7 µg/mL
Enterococcus sp. (1121) [3]; Enterococcus
  MIC90: 16.2 µg/mL
[4]; Providencia, MTCC2102
  MIC90: 10.9 µg/mL
Providencia sp. (P592); Providencia
  MIC90: 67.2 µg/mL

## CCCCN1CCN(c2ccc3nc(-c4ccc5[nH]c(-c6ccc(OCC)cc6)nc5c4)[nH]c3c2)CC1 [SP12b, 5-(4-butylpiperazin-1-yl)-2′-(4-ethoxyphenyl)-1H,1′H-2,5′-bibenzo[d]imidazole]
[5]
  MIC50: 1.24 µg/mL (≈ 2.51 µM)
  MIC90: 3.01 µg/mL (≈ 6.09 µM)
[6]
  MIC90: 1.78 µg/mL (≈ 3.6 µM)
[7]
  MIC90: 9.8 µg/mL (≈ 19.8 µM)
[8]
  sensitisation of efflux deleted strains: more sensitised
M. tuberculosis
  effect on M. tuberculosis: effective against M. tuberculosis
Enterococcus sp. (2105) [9]
  MIC50: 3.7 µg/mL (≈ 7.48 µM)
  MIC90: 9.08 µg/mL (≈ 18.4 µM)
Enterococcus sp. (1121) [10]
  MIC50: < 0.25 µg/mL
  MIC90: 0.92 µg/mL (≈ 1.86 µM)
Enterococcus sp. (1365)
  MIC50: < 0.25 µg/mL
  MIC90: 2 µg/mL (≈ 4.04 µM)
Enterococcus sp.(1150)
  MIC50: < 0.25 µg/mL
  MIC90: 2 µg/mL (≈ 4.04 µM)
Enterococcus sp. (1367)
  MIC50: < 0.25 µg/mL
  MIC90: 1 µg/mL (≈ 2.02 µM)
Enterococcus sp. (432)
  MIC50: > 128 µg/mL
  MIC90: > 128 µg/mL
Staphylococcus sp. (976)
  MIC50: < 0.25 µg/mL
  MIC90: 0.42 µg/mL (≈ 0.849 µM)
Staphylococcus sp. (982)
  MIC50: > 128 µg/mL
  MIC90: > 128 µg/mL
[11]
  MIC50: < 0.25 µg/mL
  MIC90: 0.92 µg/mL (≈ 1.86 µM)
Escherichia coli 385
  MIC50: 15 µg/mL (≈ 30.3 µM)
  MIC90: 27 µg/mL (≈ 54.6 µM)
Escherichia coli 392
  MIC50: 1.8 µg/mL (≈ 3.64 µM)
  MIC90: 60 µg/mL (≈ 121 µM)
[12]
  MIC50: > 128 µg/mL
  MIC90: 128 µg/mL (≈ 259 µM)
[13]
  MIC50: 12 µg/mL (≈ 24.3 µM)
  MIC90: 16 µg/mL (≈ 32.3 µM)
[14]
  MIC50: 14.6 µg/mL (≈ 29.5 µM)
  MIC90: 28.6 µg/mL (≈ 57.8 µM)
[15]
  MIC50: 40.5 µg/mL (≈ 81.9 µM)
  MIC90: 70.3 µg/mL (≈ 142 µM)
[16]
  MIC50: > 128 µg/mL
  MIC90: 128 µg/mL (≈ 259 µM)
[17]
  MIC50: 0.4 µg/mL (≈ 0.809 µM)
  MIC90: 0.8 µg/mL (≈ 1.62 µM)
[18]
  MIC50: > 128 µg/mL
  MIC90: 128 µg/mL (≈ 259 µM)
[19]
  MIC50: > 128 µg/mL
  MIC90: 128 µg/mL (≈ 259 µM)
[20]
  MIC50: 25.9 µg/mL (≈ 52.4 µM)
  MIC90: 59.5 µg/mL (≈ 120 µM)
[21]
  MIC50: 3.4 µg/mL (≈ 6.87 µM)
  MIC90: 6.8 µg/mL (≈ 13.7 µM)
[22]
  MIC50: < 0.25 µg/mL
  MIC90: 0.25 µg/mL (≈ 0.505 µM)
[23]
  MIC50: < 0.25 µg/mL
  MIC90: 0.25 µg/mL (≈ 0.505 µM)
E. coli K12
  MIC90: 32 µg/mL (≈ 64.7 µM)
E. coli K12 mutant ΔacrA
  MIC90: 3.9 µg/mL (≈ 7.88 µM)
E. coli K12 mutant ΔemrA
  MIC90: 7.4 µg/mL (≈ 15 µM)
E. coli K12 mutant ΔtolC
  MIC90: 2.8 µg/mL (≈ 5.66 µM)
E. coli K12 mutant ΔompC
  MIC90: 30.9 µg/mL (≈ 62.5 µM)
E. coli K12 mutant ΔompF
  MIC90: 30.9 µg/mL (≈ 62.5 µM)
[24]
  MIC90: 5.7 µg/mL (≈ 11.5 µM)
[25]
  MIC90: 17.8 µg/mL (≈ 36 µM)
[26]
  MIC50: 9.5 µg/mL (≈ 19.2 µM)
  MIC90: 24.9 µg/mL (≈ 50.3 µM)

## phenylalanine-arginine-β-naphthylamide [PAβN, reference compound]
E. coli ATCC25922; E. coli ATCC25922, PAβN in presence of HN12b
  (BA) MIC90: 4.8 µg/mL
E. coli ATCC25922; E. coli ATCC25922, single drug alone (A, B, C)
  MIC90: 64 µg/mL
E. coli KK45; E. coli KK45, PAβN in presence of HN12b
  (BA) MIC90: 10 µg/mL
A. baumannii (MTCC1920); A. baumannii (MTCC1920), PAβN in presence of HN12b
  (BA) MIC90: 59 µg/mL
A. baumannii (MTCC1920); A. baumannii (MTCC1920), single drug alone (A, B, C)
  MIC90: >128 µg/mL
A. baumannii (AB387); A. baumannii (AB387), PAβN in presence of HN12b
  (BA) MIC90: 32 µg/mL
A. baumannii (AB387); A. baumannii (AB387), single drug alone (A, B, C)
  MIC90: >128 µg/mL
[1]; K. planticola (MTCC 2272), PAβN in presence of HN12b
  (BA) MIC90: 62 µg/mL
[1]; K. planticola (MTCC 2272), single drug alone (A, B, C)
  MIC90: >128 µg/mL
K. planticola (1164); K. planticola (1164), PAβN in presence of HN12b
  (BA) MIC90: 62 µg/mL
K. planticola (1164); K. planticola (1164), single drug alone (A, B, C)
  MIC90: >128 µg/mL
P. aeruginosa (MTCC1688); P. aeruginosa (MTCC1688), PAβN in presence of HN12b
  (BA) MIC90: 60 µg/mL
P. aeruginosa (MTCC1688); P. aeruginosa (MTCC1688), single drug alone (A, B, C)
  MIC90: 123 µg/mL
P. aeruginosa (Ps 366); P. aeruginosa (Ps 366), PAβN in presence of HN12b
  (BA) MIC90: 55 µg/mL
P. aeruginosa (Ps 366); P. aeruginosa (Ps 366), single drug alone (A, B, C)
  MIC90: 120.2 µg/mL
Enterococcus sp. (2105) [2]; Enterococcus sp. (2105), PAβN in presence of HN12b
  (BA) MIC90: 59 µg/mL
Enterococcus sp. (2105) [2]; Enterococcus sp. (2105), single drug alone (A, B, C)
  MIC90: >128 µg/mL
Enterococcus sp. (1121) [3]; Enterococcus sp. (1121), PAβN in presence of HN12b
  (BA) MIC90: 63 µg/mL
Enterococcus sp. (1121) [3]; Enterococcus sp. (1121), single drug alone (A, B, C)
  MIC90: >128 µg/mL
[4]; Providencia sp. (MTCC 2102), PAβN in presence of HN12b
  (BA) MIC90: 58 µg/mL
[4]; Providencia sp. (MTCC 2102), single drug alone (A, B, C)
  MIC90: >128 µg/mL
Providencia sp. (P592); Providencia sp. (P592), PAβN in presence of HN12b
  (BA) MIC90: 38 µg/mL
Providencia sp. (P592); Providencia sp. (P592), single drug alone (A, B, C)
  MIC90: >128 µg/mL
